# Assay results published in patent US20250213700A1, “COMPOUNDS, COMPOSITIONS, AND METHODS FOR CELL-SPECIFIC PHARMACOLOGY” (Duke University, priority 2022, published 2025).
# System: GABAAR
# Assay: VTA slice, evoked GABAAR IPSCs on midbrain dopamine neurons
# Type: cell-based, mouse
# Details: 300 nM (FIG. 4E)
# Source text: FIG. 4A-4F show the DART.2 platform can enable safe use of epileptogenic pharmaceuticals in awake behaving animals. (FIG. 4A) Validation of gabazine.1^DART.2 in cerebellar slice. Top: voltage-clamp schematic. Bottom: tonic GABAAR in granule cells expressing ^+HTP or ^ddHTP. […] Data are mean±SEM, cells normalized to baseline. (FIG. 4B) In vivo delivery of gabazine.1^DART.2 to cerebellar granule cells. Top right: schematic of experimental approach, GCaMP6f granule-cell activity obtained in the absence of sensory stimuli. Top left: example field of view, GCaMP6f signal averaged across trials. Bottom: example calcium traces (ΔF/F) in an awake ^+HTP mouse before (baseline) and after (1 μL of 1 μM gabazine.1^DART.2) infusion. (FIG. 4C) In vivo, 1 μL of 1 μM gabazine.1^DART.2 to ^+HTP mice. Color indicates ΔF/F, each row is one cell before (left) and after (right) gabazine.1^DART.2 infusion. Full dataset from 6 mice (n=1707 cells, p<0.0001, paired t-test, before vs after infusion). (FIG. 4D) In vivo, 1 μL of 1 μM gabazine.1^DART.2 to ^ddHTP mice. Format as in panel C. Full dataset from 4 mice (n=1084 cells, p=0.76, paired t-test, before vs after infusion). (FIG. 4E) Validation of gabazine.7^DART.2 in VTA slice. Top: evoked-IPSC configuration. […] Data are mean±SEM, cells normalized to baseline. Control experiments confirmed the GABAAR specificity of the manipulation. […] Data are mean±SEM, normalized to baseline speed of each animal.
# Electrophysiology. Preparation of Brain slices: Mice (8-10 weeks) were injected AAV10 HaloTag™-dTomato to striatum or ventral tegmental area (VTA). After 3-5 weeks, mice were deeply anesthetized with isoflurane and euthanized by decapitation. Coronal brain slices ([…]) containing striatum or VTA were prepared by standard methods using a Vibratome (Leica, VT 1200S), in ice-cold high sucrose cutting solution containing (in mM) 220 sucrose, 3 KCl, 1.25 NaH2PO4, 25 NaHCO3, 12 MgSO4.7H2O, 10 glucose, and 0.2 CaCl2) bubbled with 95% O2 and 5% CO2. The slices were placed into modified artificial cerebrospinal fluid (aCSF) containing (in mM): 120 NaCl, 3.3 KCl, 1.23 NaH2PO4, 1 MgSO4, 2 CaCl2), 25 NaHCO3, and 10 glucose at pH 7.3, previously saturated with 95% O2 and 5% CO2. For recovery, the slices were incubated at 33° C. for 40-60 min in the bubbled ACSF solution and then allowed to cool to room temperature (22-24° C.) until the recordings were initiated.
# Whole-cell patch-clamp recording: The brain slices or retinas were perfused with bubbled aCSF at 29-30° C. with a 2 ml/min flow rate. Recordings were made by whole cell patch recording techniques using a Multiclamp 700B amplifier (Molecular Devices, Axon Instruments Inc., Union City, CA). The signals were filtered at 10 KHz and acquired using Digitate 1440A and pClamp 10.7 (Molecular Devices). […]
smiles,measurement,setting,value
COc1cc(CCCCl)ccc1CCOCCNC(=O)c1ccc(CNC(=O)CCOCCOCCOCCOCCOCCOCCOCCOCCOCCOCCOCCOCCOCCOCCOCCOCCOCCOCCOCCOCCOCCOCCOCCOCCOCCOCCOCCOCCOCCOCCOCCOCCOCCOCCOCCOCCn2cc(COCCOCCOCCOCCOCCOCCOCCCCCCOc3ccc(-c4nn(CCCCC(=O)O)c(=N)cc4C)cc3)nn2)cc1 [gabazine.7DART.2],"evoked GABAAR current (IPSCs), +HTP neurons",,pronounced block of evoked GABAAR current
same,"evoked GABAAR current (IPSCs), ddHTP cells",,no measurable effect on ddHTP cells
same,"evoked GABAAR current (IPSCs), +HTP neurons",listed as gabazine.7^DART.2,nearly complete block of evoked IPSCs
same,"evoked GABAAR current (IPSCs), ddHTP cells",listed as gabazine.7^DART.2,no impact on ^ddHTP cells
